What all share (assay type): cell-based
Test [1] concerns soluble CD23. The experiment in a line: Inhibition of release of soluble CD23 from CD23-transfected CHO cells (Procedure 1). The settings on record: CHO cells transfected with alpha form of CD23, 6 hours, ELISA of supernatant; read-out: IC50 (concentration which inhibits the release of soluble CD23 by 50% relative to the control culture). The method, then: The ability of test compounds to inhibit the release of soluble CD23 was investigated by use of the following procedure.
Adherent Chinese Hamster Ovary cells which had been transfected with the alpha form of CD23 were grown in microtitre plates. Cells were grown to confluence in α-MEM medium with 10% foetal calf serum, 2 mM glutamine containing 800 micro g/ml G418. Medium was removed and the cells washed with sterile phosphate buffered saline. Test compounds were dissolved in dimethyl sulphoxide at a stock concentration of 20 mM, then diluted 1 in 200 with α-MEM containing 800 micro g/ml G418 (no foetal calf serum). […] of the diluted compounds were added to the adherent cells in triplicate wells. Appropriate control cultures were set up in triplicate. The plates were incubated for 6 hours at 37° C., 95% air/5% CO2 in a humidified incubator, then centrifuged at 200× g for 3 minutes. A specific ELISA for CD23, obtained from The Binding Site Limited, Institute of Research and Development, Birmingham England, was used to measure CD23 levels in the culture supernatants.
(In general: ELISA stands for enzyme-linked immunosorbent assay.)

In test [2] the test system is Human peripheral blood mononuclear cells. The experiment in a line: Inhibition of formation of human IgE in vitro, peripheral blood mononuclear cells with IL4 (Procedure 3). The note with it: 12 days, ELISA, IL4 alone 72.4, TCM 0.25. As to the method:
(§1) The ability of test compounds to inhibit the formation of human IgE in vitro was investigated using the following procedure:
Human peripheral blood mononuclear cells were separated by centrifugation over Ficoll-Paque (Pharmacia). The cells were suspended in RPMI 1640 medium containing 10% foetal calf serum, 2 mM glutamine, 50 microM 2-mercaptoethanol and 50 micro g/ml gentamycin (TCM) at a concentration of 1.25×10^6 cells/ml. 800 micro l of the cell suspension were aliquoted into the wells of a 48 well plate. […] Test compounds are dissolved in dimethylsulphoxide (DMSO) at a stock dilution of
10^−2M diluted 1 in 100 in TCM and then as above. The plates are incubated for 12 days at 37° C. in a 95% air/5% CO2 humidified incubator. At the end of the culture period the supernatants were removed with the wells and centrifuged (200× g for 10 minutes) to remove any non-adherent cells. There was no toxicity as assessed by trypan blue dye exclusion. The IgE concentration in the supernatants was measured by ELISA.

The test system of test [3] is Human tonsillar B lymphocytes. The experiment in a line: Inhibition of formation of human IgE in vitro, tonsillar B lymphocytes with IL4 and anti-CD40 (Procedure 4). The note with it: 11 days, ELISA, stimulated control 11.7, TCM 1.9. As to the method:
as §1
Human tonsillar B lymphocytes were suspended in RPMI 1640 medium containing 10% foetal calf serum, 2 mM glutamine, 50 micro M 2-mercaptoethanol and 50 micro g/ml gentamycin (TCM) at a concentration of 1.25×10^6 cells/ml. 800 micro l of the cell suspension were aliquoted into the wells of a 48 well plate. 100 micro l of TCM or IL4 at 100 ng/ml and antibody to CD40 at 10 microg/ml was added in quadriplicate to the appropriate wells, followed by 100 micro l of TCM or 10× the final concentration of compound under investigation. Test compounds are dissolved in DMSO at a stock dilution of 10^−2M diluted 1 in 100 in TCM and then as above. The plates are incubated for 11 days at 37° C. in a 95% air/5% CO2 humidified incubator. At the end of the culture period the supernatents were removed from the wells and centrifuged (200× g for 10 minutes) to remove any non-adherent cells. There was no toxicity as assessed by trypan dye exclusion. The IgE concentration in the supernatants was measured by ELISA.

This is an account of results in US20020082200A1, “Use of inhibitors of human S-CD23” (SmithKline Beecham p.1.c., priority 1994, published 2002).

On to `CNC(=O)[C@@H](Cc1ccccc1)NC(=O)[C@H](CC(C)C)[C@H](CSc1cccs1)C(=O)N[O-].[Na+]` [P1, [4-(N-Hydroxyamino)-2-(R)-isobutyl-3-(S)-(2-thiophenethiomethyl)succinyl]-(S)-phenylalanine-N-methylamide, Sodium Salt], for which the IC50 in test [1] was determined as 0.05 µM. Further, the “IgE ng/ml (mean +/− sem)” value in test [2] (IL4 (5 ng/ml) with compound at 10^−5 M) was 3.2 ± 1.9 ng/mL; in test [2] (IL4 (5 ng/ml) with compound at 10^−6 M), 21.3 ± 16.5 ng/mL; in test [2] (IL4 (5 ng/ml) with compound at 10^−7 M), 68.8 ± 21.8 ng/mL; in test [3] (IL4 (10 ng/ml) and anti CD40 (1 micro g/ml) with compound at 10^−5 M), 2.9 ± 0.2 ng/mL; in test [3] (IL4 (10 ng/ml) and anti CD40 (1 micro g/ml) with compound at 10^−6 M), 4.3 ± 0.6 ng/mL; in test [3] (IL4 (10 ng/ml) and anti CD40 (1 micro g/ml) with compound at 10^−7 M) it was 6.2 ± 0.5 ng/mL.

Turning to `CNC(=O)[C@@H](Cc1ccc(OC)cc1)NC(=O)C(CC(=O)NO)CC(C)C` (stereo partly drawn) [P3, N-[3-(N′-Hydroxycarboxamido)-2-(2-methylpropyl)-propanoyl]-(S)-O-methyl-L-tyrosine-N-methylamide], the IC50 in test [1] turned out to be 3.35 µM.

Regarding `CNC(=O)[C@H](Cc1c[nH]c2ccccc12)NC(=O)[C@H](CC(C)C)[C@@H](S)CC(=O)OC` [P4, Methyl 3-(S)-mercapto-6-methyl-4-(S)-[[[1(S)-[(methylamino)carbonyl]-2-(3-indolyl)ethyl]amino]carbonyl]heptanoate], the IC50 in test [1] is 2.2 µM.

Consider `CNC(=O)[C@H](Cc1c[nH]c2ccccc12)NC(=O)[C@H](CC(C)C)[C@@H](S)CC(=O)OC(C)C` [P5, Isopropyl 3-(S)-mercapto-6-methyl-4-(S)-[[[1(S)-[(methylamino)carbonyl]-2-(3-indolyl)ethyl]amino]carbonyl]heptanoate], for which the IC50 in test [1] is 60 µM.

Take `CNC(=O)[C@H](Cc1ccc(OC)cc1)NC(=O)[C@H](CC(C)C)[C@@H](S)CC(N)=O` [P6, 3-(S)-Mercapto-N^1-[1-(S)-[(methylamino)carbonyl]-2-(4-methoxyphenyl)ethyl]-2-(S)-(2-methylpropyl)pentanediamide]: in test [1], the IC50 was found to be 60 µM.

With `CC[C@@H](N[C@@H](CC(C)C)C(=O)N[C@@H](Cc1ccc(OC)cc1)C(=O)NC)P(=O)(O)O` [P7, N-[N-((S)-1-Phosphonopropyl)-(S)-leucyl]-O-methyl-(S)-tyrosine N-methylamide], the IC50 in test [1] was 30 µM.
